In patent US20230381223A1, “ORAL PYROPHOSPHATE FOR USE IN REDUCING CALCIFICATION” (PYROGENYX INC., priority 2020, published 2023):

Legend:
Abcc6−/− mice = settings: female Abcc6−/− mice, oral, 10 mM in drinking water
Method: Briefly, mice were kept under routine laboratory conditions with a 12-hour light-dark cycle and ad libitum access to water and chow. Anesthesia was carried out by intraperitoneal injection of the mixture of Zoletil (30 mg/kg, Virbac, France), Xylazine (12.5 mg/kg, Produlab Pharma, The Netherlands) and Butorphanol (3 mg/kg, Richterpharma, Austria) during all procedures.
In this experiment calcification was induced in the myocardium and five days after we determined the Ca^2+-content of the heart.

[1] = healthy volunteers, oral, gelatin capsules, 39 mg pyrophosphate/kg
Method: To avoid the unpleasant taste we used capsulated PPi salts instead of water-based solution as the form of delivery. We tested two different capsules: gelatin and cellulose. Subsequently, we determined how PPi is absorbed in individuals affected by PXE compared to its absorption in non-PXE volunteers.
Human studies were conducted in accordance with the Declaration of Helsinki. The oral uptake studies involving healthy human volunteers (female and male) were conducted and all patient samples were handled in an anonymized form. The oral uptake study involving PXE patients involved mutation analysis confirming the diagnosis in PXE patients. The diagnosis of PXE was based on characteristic skin findings, supported by characteristic histopathology, and ocular and vascular involvement.
Gelatin capsules were obtained from Molar Chemicals (Halasztelek, Hungary), cellulose capsules were obtained from Capsuline (Davie, Fla.).
Volunteers and PXE patients (after overnight fasting) were involved in the studies. The duration of ingestion was less than one minute. Blood samples were collected from the vena cubiti before ingestion (0 min) and after 30, 60, 120 and 240 min into CTAD anticoagulated tubes (BD, Franklin Lakes, N.J.), and filtered through Centrisart I 300,000 MWCO filters (Sartorius, Frankfurt, Germany). […]

Row | Compound | calcification of the heart (total Ca2+-content) five days after cryo-injury (Abcc6−/− mice) | GI discomfort [1]
1 | O=P([O-])([O-])OP(=O)(O)O.[K+].[K+] [K2H2P2O7, Dipotassium Pyrophosphate] | reduce calcification to the same extent | –
2 | O=P([O-])([O-])OP(=O)(O)O.[Na+].[Na+] [Na2H2P2O7, disodium pyrophosphate, reference compound] | reduce calcification to the same extent | reduced to the minimum
